Experimental data taken from patent US20210115040A1, “OGA INHIBITOR COMPOUNDS” (Janssen Pharmaceutica NV, priority 2018, published 2021).

Target: T1, recombinant human Meningioma Expressed Antigen 5 (MGEA5), also referred to as O-GlcNAcase (OGA) (Homo sapiens, UniProt O60502)
T1 construct: Full length OGA enzyme was purchased at OriGene (cat #TP322411); purchased OriGene TP322411
T1 sequence (O60502 1-916): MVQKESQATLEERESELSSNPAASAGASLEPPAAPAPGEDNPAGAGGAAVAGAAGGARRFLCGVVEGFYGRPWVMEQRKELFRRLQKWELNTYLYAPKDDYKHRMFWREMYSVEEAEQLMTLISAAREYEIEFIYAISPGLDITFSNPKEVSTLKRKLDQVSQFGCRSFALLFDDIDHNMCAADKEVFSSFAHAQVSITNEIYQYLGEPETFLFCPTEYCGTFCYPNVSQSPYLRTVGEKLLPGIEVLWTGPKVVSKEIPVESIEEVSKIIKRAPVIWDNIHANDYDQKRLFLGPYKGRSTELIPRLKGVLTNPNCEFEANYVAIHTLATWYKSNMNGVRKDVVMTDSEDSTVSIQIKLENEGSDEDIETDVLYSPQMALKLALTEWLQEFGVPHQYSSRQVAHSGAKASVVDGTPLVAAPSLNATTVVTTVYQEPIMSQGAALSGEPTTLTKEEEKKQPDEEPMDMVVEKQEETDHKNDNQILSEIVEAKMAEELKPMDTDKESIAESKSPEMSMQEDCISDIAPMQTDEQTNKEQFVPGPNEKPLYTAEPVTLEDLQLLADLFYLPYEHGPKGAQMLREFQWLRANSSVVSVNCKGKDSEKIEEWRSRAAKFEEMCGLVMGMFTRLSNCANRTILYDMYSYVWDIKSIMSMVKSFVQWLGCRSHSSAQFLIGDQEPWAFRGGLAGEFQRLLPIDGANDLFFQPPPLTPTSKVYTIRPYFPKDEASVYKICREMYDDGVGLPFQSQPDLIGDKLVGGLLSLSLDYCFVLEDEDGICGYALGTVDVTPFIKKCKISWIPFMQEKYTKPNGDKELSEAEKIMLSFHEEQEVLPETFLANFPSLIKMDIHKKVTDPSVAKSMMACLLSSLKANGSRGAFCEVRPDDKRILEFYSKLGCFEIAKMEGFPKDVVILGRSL
Test: OGA biochemical assay (inhibition of FM-GlcNAc hydrolysis, fluorescence)
Settings: FM-GlcNAc substrate, 6 h at room temperature, read-out: Enzymatic hOGA, pIC50 (converted)
In short: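 Full-length OGA (2 nM) pre-incubated 60 min at room temperature with compound, then FM-GlcNAc (100 uM final) hydrolysed 6 h at room temperature in 200 mM citrate/phosphate pH 7.2 with 0.005% Tween-20. Stopped with carbonate pH 11.0; fluorescein read at ex 485/em 538 nm. IC50 and Hill coefficient from curve fit between no-inhibitor and saturating-standard controls.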

IC50	SMILES
0.0398 µM	Cc1cc(CO[C@H]2CCCN(C(C)c3ccc4sc(C)nc4n3)C2)cc(C)n1 (stereo partly shown) [Compound 66]
0.126 µM	Cc1cc(CO[C@@H]2CCCN(C(C)c3ccc4sc(C)nc4n3)C2)cc(C)n1 (stereo partly shown) [Compound 68]
2 µM	Cc1cc(C)nc(CO[C@@H]2CCN(C(C)c3ccc4sc(C)nc4n3)C2)c1 (stereo partly shown) [Compound 80]
0.126 µM	Cc1cc([C@H]2CCCN(C(C)c3nc4nc(C)[nH]c4cc3F)C2)cc(C)n1 (stereo partly shown) [Compound 82]
0.01 µM	COc1cc(N[C@H]2CCCN(C(C)c3ccc4sc(C)nc4n3)C2)cc(C)n1 (stereo partly shown) [Compound 83]
0.0251 µM	Cc1cc(CN[C@H]2CCCN(C(C)c3ccc4sc(C)nc4n3)C2)cc(C)n1 (stereo partly shown) [Compound 84]
0.00316 µM	Cc1cc(O[C@@H]2CCN(C(C)c3cc4nc(C)sc4cc3F)C2)cc(C)n1 (stereo partly shown) [Compound 88]

Same assay, conditions: FM-GlcNAc substrate, maximal effect, read-out: Enzymatic Emax (%)

Emax	SMILES
100%	Cc1cc(CO[C@H]2CCCN(C(C)c3ccc4sc(C)nc4n3)C2)cc(C)n1 (stereo partly shown) [Compound 66]
98%	Cc1cc(CO[C@@H]2CCCN(C(C)c3ccc4sc(C)nc4n3)C2)cc(C)n1 (stereo partly shown) [Compound 68]
85%	Cc1cc(C)nc(CO[C@@H]2CCN(C(C)c3ccc4sc(C)nc4n3)C2)c1 (stereo partly shown) [Compound 80]
97%	Cc1cc([C@H]2CCCN(C(C)c3nc4nc(C)[nH]c4cc3F)C2)cc(C)n1 (stereo partly shown) [Compound 82]
96%	COc1cc(N[C@H]2CCCN(C(C)c3ccc4sc(C)nc4n3)C2)cc(C)n1 (stereo partly shown) [Compound 83]
98%	Cc1cc(CN[C@H]2CCCN(C(C)c3ccc4sc(C)nc4n3)C2)cc(C)n1 (stereo partly shown) [Compound 84]
99%	Cc1cc(O[C@@H]2CCN(C(C)c3cc4nc(C)sc4cc3F)C2)cc(C)n1 (stereo partly shown) [Compound 88]

Target: T2, OGA (Homo sapiens, UniProt O60502)
T2 construct: HEK293 cells inducible for P301L mutant human Tau (isoform 2N4R) were established at Janssen; endogenous in cells; host or cells: HEK293 cells inducible for P301L mutant human Tau (2N4R)
T2 sequence (O60502 1-916): T1 sequence (O60502 1-916)
Test: OGA cellular assay (ICC detection of O-GlcNAcylated proteins in HEK293 cells inducible for P301L mutant human Tau)
Type: cell-based
Settings: HEK293, HEK293 cells inducible for P301L mutant human Tau, maximum = Thiamet G 200 uM
Procedure: HEK293 cells inducible for P301L mutant human Tau (isoform 2N4R) were established at Janssen. Thiamet-G was used for both plate validation (high control) and as reference compound (reference EC50 assay validation). OGA inhibition is evaluated through the immunocytochemical (ICC) detection of O-GlcNAcylated proteins by the use of a monoclonal antibody (CTD110.6; Cell Signaling, #9875) detecting 0-GlcNAcylated residues as previously described (Dorfmueller et al. 2010 Chemistry & biology, 17:1250). Inhibition of OGA will result in an increase of O-GlcNAcylated protein levels resulting in an increased signal in the experiment. Cell nuclei are stained with Hoechst to give a cell culture quality control and a rough estimate of immediate compounds toxicity, if any. ICC pictures are imaged with a Perkin Elmer Opera Phenix plate microscope and quantified with the provided software Perkin Elmer Harmony 4.1.
Cells were propagated in DMEM high Glucose (Sigma, #D5796) following standard procedures. 2 days before the cell assay cells are split, counted and seeded in Poly-D-Lysine (PDL) coated 96-wells (Greiner, #655946) plate at a cell density of 12,000 cells per cm^2 (4,000 cells per well) in 100 μl of Assay Medium (Low Glucose medium is used to reduce basal levels of GlcNAcylation) (Park et al. 2014 The Journal of biological chemistry 289:13519). At the day of compound test medium from assay plates was removed and replenished with 90 μl of fresh Assay Medium. 10 μl of compounds at a 10fold final concentration were added to the wells. Plates were centrifuged shortly before incubation in the cell incubator for 6 hours. DMSO concentration was set to 0.2%. Medium is discarded by applying vacuum. For staining of cells medium was removed and cells washed once with 100 μl D-PBS (Sigma, #D8537). From next step onwards unless other stated assay volume was always 50 μl and incubation was performed without agitation and at room temperature. Cells were fixed in 50 μl of a 4% paraformaldehyde (PFA, Alpha aesar, #043368) PBS solution for 15 minutes at room temperature. […] Before analysis samples were washed 2 times manually for 5 minutes in ICC base buffer.
Imaging is performed using Perkin Elmer Phenix Opera using a water 20× objective and recording 9 fields per well. Intensity readout at 488 nm is used as a measure of O-GlcNAcylation level of total proteins in wells. To assess potential toxicity of compounds nuclei were counted using the Hoechst staining. IC50-values are calculated using parametric non-linear regression model fitting. As a maximum inhibition Thiamet G at a 200 uM concentration is present on each plate. In addition, a concentration response of Thiamet G is calculated on each plate.

Emax	SMILES
55%	Cc1cc(CO[C@H]2CCCN(C(C)c3ccc4sc(C)nc4n3)C2)cc(C)n1 (stereo partly shown) [Compound 66]
27%	Cc1cc(CO[C@@H]2CCCN(C(C)c3ccc4sc(C)nc4n3)C2)cc(C)n1 (stereo partly shown) [Compound 68]
5%	Cc1cc(C)nc(CO[C@@H]2CCN(C(C)c3ccc4sc(C)nc4n3)C2)c1 (stereo partly shown) [Compound 80]
39%	Cc1cc([C@H]2CCCN(C(C)c3nc4nc(C)[nH]c4cc3F)C2)cc(C)n1 (stereo partly shown) [Compound 82]
78%	COc1cc(N[C@H]2CCCN(C(C)c3ccc4sc(C)nc4n3)C2)cc(C)n1 (stereo partly shown) [Compound 83]
66%	Cc1cc(CN[C@H]2CCCN(C(C)c3ccc4sc(C)nc4n3)C2)cc(C)n1 (stereo partly shown) [Compound 84]
66%	Cc1cc(O[C@@H]2CCN(C(C)c3cc4nc(C)sc4cc3F)C2)cc(C)n1 (stereo partly shown) [Compound 88]

Same assay, conditions: HEK293 cells inducible for P301L mutant human Tau, 6 hours incubation; read-out: Cellular hOGA; pEC50 (converted)

EC50	SMILES
0.501 µM	Cc1cc(CO[C@H]2CCCN(C(C)c3ccc4sc(C)nc4n3)C2)cc(C)n1 (stereo partly shown) [Compound 66]
> 1 µM	Cc1cc(CO[C@@H]2CCCN(C(C)c3ccc4sc(C)nc4n3)C2)cc(C)n1 (stereo partly shown) [Compound 68]
> 1 µM	Cc1cc(C)nc(CO[C@@H]2CCN(C(C)c3ccc4sc(C)nc4n3)C2)c1 (stereo partly shown) [Compound 80]
> 1 µM	Cc1cc([C@H]2CCCN(C(C)c3nc4nc(C)[nH]c4cc3F)C2)cc(C)n1 (stereo partly shown) [Compound 82]
0.102 µM	COc1cc(N[C@H]2CCCN(C(C)c3ccc4sc(C)nc4n3)C2)cc(C)n1 (stereo partly shown) [Compound 83]
0.501 µM	Cc1cc(CN[C@H]2CCCN(C(C)c3ccc4sc(C)nc4n3)C2)cc(C)n1 (stereo partly shown) [Compound 84]
0.251 µM	Cc1cc(O[C@@H]2CCN(C(C)c3cc4nc(C)sc4cc3F)C2)cc(C)n1 (stereo partly shown) [Compound 88]
